# Laboratory results as given in patent US20250179000A1 (Sanford Burnham Prebys Medical Discovery Institute, priority 2021, published 2025).
# pEC50: −log10 of the molar value.
# Key:
# Assay type in all cases: cell-based
# [1] = target: T1, Rat mGlu3 (Rattus norvegicus, UniProt P31422); assay: mGlu receptor in vitro assay (thallium flux through GIRK channels / calcium assay), rat mGlu3; conditions: PAM potency with EC20 glutamate
# T1 construct: expressed in transfected cells; host or cells: HEK-293 co-expressing GIRK channels
# Outline: (§1)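 HEK-293 cells co-expressing rat mGlu2 or mGlu3 and GIRK, dye-loaded with FluoZin2-AM, compound added about 2.5 min before thallium buffer with EC20 glutamate; potency from the 5-15 s fluorescence slope, 10-point 4-parameter fit. Calcium assay at mGlu3 used TREx293 mGlu3 Gα15 cells induced with tetracycline 20 ng/mL for 20 h.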
# [2] = target: Human mGlu2 (Homo sapiens, UniProt Q14416); assay: mGlu receptor in vitro assay, human mGlu2
# [3] = target: T2, Rat mGlu2 (Rattus norvegicus, UniProt P31421); assay: mGlu receptor in vitro assay, thallium flux through GIRK channels, rat mGlu2; conditions: PAM potency with EC20 glutamate
# T2 construct: expressed in transfected cells; host or cells: HEK-293 co-expressing GIRK channels
# Outline: as §1
# [4] = target: Human mGlu3 (Homo sapiens, UniProt Q14832); assay: mGlu receptor in vitro assay, human mGlu3
# Method: Human Embryonic Kidney (HEK-293) cell lines co-expressing rat mGlu receptors 2, 3, 4, 6, 7 or 8 and G protein-coupled inwardly-rectifying potassium (GIRK) channels were grown in Growth Media containing 45% DMEM, 45% F-12, 10% FBS, 20 mM HEPES, 2 mM L-glutamine, antibiotic/antimycotic, non-essential amino acids, 700 μg/mL G418, and 0.6 μg/ml puromycin at 37° C. in the presence of 5% CO2. […] All cell culture reagents were purchased from Invitrogen Corp. (Carlsbad, CA) unless otherwise noted. Calcium assays were used to assess activity of compounds at mGlu1 and mGlu5, as previously described in Engers et al (J. Med. Chem. 2009, 52, 4115-4118). Calcium assays at mGlu3 were performed as described for mGlu5 with the exception that TREx293 mGlu3 Gα15 cells were treated with tetracycline at 20 ng/mL for 20 h prior to assay.
# Briefly, cells were plated into 384-well, black-walled, clear-bottomed poly-D-lysine-coated plates at a density of 15,000 cells/20 μL/well in DMEM containing 10% dialyzed FBS, 20 mM HEPES, and 100 units/mL penicillin/streptomycin (assay media). Plated cells were incubated overnight at 37° C. in the presence of 5% CO2. The following day, the medium was exchanged from the cells to assay buffer [Hanks' balanced salt solution (Invitrogen) containing 20 mM HEPES, pH 7.3] using an ELX405 microplate washer (BioTek), leaving 20 μL/well, followed by the addition of 20 μL/well FluoZin2-AM (330 nM final concentration) indicator dye (Invitrogen; prepared as a stock in DMSO and mixed in a 1:1 ratio with Pluronic acid F-127) in assay buffer. Cells were incubated for 1 h at room temperature, and the dye exchanged to assay buffer using an ELX405, leaving 20 μL/well. Test compounds were diluted to 2 times their final desired concentration in assay buffer (0.3% DMSO final concentration). Agonists were diluted in thallium buffer [125 mM sodium bicarbonate (added fresh the morning of the experiment), 1 mM magnesium sulfate, 1.8 mM calcium sulfate, 5 mM glucose, 12 mM thallium sulfate, and 10 mM HEPES, pH 7.3] at 5 times the final concentration to be assayed. Cell plates and compound plates were loaded onto a kinetic imaging plate reader (FDSS 6000 or 7000; Hamamatsu Corporation, Bridgewater, NJ). Appropriate baseline readings were taken (10 images at 1 Hz; excitation, 470±20 nm; emission, 540±30 nm) and test compounds were added in a 20 μL volume and incubated for approximately 2.5 min before the addition of 10 μL of thallium buffer with or without agonist. After the addition of agonist, data were collected for approximately an additional 2.5 min. Data were analyzed using Excel (Microsoft Corp, Redmond, WA). The slope of the fluorescence increase beginning 5 s after thallium/agonist addition and ending 15 s after thallium/agonist addition was calculated, corrected to vehicle and maximal agonist control slope values, and plotted in using either XLfit (ID Business Solutions Ltd) or Prism software (GraphPad Software, San Diego, CA) to generate concentration-response curves. Potencies were calculated from fits using a four-point parameter logistic equation. For concentration-response curve experiments, compounds were serially diluted 1:3 into 10-point concentration response curves and were transferred to daughter plates using an Echo acoustic plate reformatter (Labcyte, Sunnyvale, CA). Test compounds were applied and followed by EC20 concentrations of glutamate.
# T2 sequence (P31421 19-872): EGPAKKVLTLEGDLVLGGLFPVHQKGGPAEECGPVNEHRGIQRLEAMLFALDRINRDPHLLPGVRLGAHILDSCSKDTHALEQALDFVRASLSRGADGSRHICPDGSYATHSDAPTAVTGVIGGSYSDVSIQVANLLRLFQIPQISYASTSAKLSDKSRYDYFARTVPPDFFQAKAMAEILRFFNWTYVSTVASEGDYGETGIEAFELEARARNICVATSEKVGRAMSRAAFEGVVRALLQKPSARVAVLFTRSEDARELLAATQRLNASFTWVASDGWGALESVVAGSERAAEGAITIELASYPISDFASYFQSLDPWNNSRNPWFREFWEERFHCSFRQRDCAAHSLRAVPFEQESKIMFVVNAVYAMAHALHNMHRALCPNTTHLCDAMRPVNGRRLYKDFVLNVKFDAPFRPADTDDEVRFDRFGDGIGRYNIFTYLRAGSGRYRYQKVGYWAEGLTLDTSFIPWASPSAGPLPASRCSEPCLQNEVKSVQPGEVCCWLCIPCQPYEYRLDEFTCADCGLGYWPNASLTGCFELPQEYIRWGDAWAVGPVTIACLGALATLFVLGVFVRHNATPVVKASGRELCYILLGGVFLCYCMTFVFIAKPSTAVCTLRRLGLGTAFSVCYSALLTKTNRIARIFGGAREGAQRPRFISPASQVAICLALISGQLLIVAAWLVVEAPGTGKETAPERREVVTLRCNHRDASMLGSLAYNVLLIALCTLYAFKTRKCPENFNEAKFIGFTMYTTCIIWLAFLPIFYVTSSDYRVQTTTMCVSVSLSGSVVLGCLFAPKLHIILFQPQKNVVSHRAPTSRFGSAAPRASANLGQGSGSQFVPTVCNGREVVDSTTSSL
# T1 sequence (P31422 23-879): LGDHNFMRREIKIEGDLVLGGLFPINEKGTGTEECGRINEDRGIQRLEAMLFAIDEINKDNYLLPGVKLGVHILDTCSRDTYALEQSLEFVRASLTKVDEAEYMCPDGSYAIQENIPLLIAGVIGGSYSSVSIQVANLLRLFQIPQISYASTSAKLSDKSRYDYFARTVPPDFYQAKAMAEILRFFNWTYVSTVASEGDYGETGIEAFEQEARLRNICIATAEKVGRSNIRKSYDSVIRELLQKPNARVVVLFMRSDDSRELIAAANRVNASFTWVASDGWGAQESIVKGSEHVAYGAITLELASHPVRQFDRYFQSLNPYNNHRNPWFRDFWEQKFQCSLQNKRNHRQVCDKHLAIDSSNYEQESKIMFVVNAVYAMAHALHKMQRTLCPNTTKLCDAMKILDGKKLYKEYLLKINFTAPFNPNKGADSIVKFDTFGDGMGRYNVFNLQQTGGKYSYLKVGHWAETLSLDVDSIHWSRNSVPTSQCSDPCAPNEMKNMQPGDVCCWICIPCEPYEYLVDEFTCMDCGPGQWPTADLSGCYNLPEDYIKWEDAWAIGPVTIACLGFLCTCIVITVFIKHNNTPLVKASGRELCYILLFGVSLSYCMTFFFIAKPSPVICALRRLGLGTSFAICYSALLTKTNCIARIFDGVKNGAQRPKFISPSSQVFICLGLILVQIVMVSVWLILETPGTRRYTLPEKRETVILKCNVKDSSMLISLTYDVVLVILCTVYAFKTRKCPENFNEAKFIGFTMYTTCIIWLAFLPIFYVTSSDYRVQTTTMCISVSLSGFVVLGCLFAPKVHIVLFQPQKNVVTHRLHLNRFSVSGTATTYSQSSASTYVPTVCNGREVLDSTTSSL
# Chain of Human mGlu3 (Q14832 23-879): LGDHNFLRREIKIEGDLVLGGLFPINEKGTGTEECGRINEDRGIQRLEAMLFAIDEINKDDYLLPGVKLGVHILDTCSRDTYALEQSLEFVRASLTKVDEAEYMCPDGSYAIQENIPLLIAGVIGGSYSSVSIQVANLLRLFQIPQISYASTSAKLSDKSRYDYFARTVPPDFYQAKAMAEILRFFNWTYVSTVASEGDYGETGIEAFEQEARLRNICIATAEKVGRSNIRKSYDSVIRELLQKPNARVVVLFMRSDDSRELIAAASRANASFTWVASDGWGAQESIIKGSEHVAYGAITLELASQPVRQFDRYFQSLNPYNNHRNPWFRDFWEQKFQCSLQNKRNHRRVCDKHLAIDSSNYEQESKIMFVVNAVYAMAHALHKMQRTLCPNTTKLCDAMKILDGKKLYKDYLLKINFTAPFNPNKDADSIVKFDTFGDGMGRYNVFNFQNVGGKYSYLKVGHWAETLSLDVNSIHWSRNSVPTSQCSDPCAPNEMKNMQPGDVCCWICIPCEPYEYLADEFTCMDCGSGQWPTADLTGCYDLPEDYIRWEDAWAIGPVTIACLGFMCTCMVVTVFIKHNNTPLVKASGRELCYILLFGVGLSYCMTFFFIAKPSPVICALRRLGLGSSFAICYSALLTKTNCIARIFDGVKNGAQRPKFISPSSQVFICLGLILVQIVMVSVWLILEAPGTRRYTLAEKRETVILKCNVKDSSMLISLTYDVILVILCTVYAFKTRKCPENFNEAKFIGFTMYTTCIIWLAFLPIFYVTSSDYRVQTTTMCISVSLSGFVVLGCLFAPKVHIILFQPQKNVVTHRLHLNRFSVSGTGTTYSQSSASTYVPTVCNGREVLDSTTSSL
# Chain of Human mGlu2 (Q14416 19-872): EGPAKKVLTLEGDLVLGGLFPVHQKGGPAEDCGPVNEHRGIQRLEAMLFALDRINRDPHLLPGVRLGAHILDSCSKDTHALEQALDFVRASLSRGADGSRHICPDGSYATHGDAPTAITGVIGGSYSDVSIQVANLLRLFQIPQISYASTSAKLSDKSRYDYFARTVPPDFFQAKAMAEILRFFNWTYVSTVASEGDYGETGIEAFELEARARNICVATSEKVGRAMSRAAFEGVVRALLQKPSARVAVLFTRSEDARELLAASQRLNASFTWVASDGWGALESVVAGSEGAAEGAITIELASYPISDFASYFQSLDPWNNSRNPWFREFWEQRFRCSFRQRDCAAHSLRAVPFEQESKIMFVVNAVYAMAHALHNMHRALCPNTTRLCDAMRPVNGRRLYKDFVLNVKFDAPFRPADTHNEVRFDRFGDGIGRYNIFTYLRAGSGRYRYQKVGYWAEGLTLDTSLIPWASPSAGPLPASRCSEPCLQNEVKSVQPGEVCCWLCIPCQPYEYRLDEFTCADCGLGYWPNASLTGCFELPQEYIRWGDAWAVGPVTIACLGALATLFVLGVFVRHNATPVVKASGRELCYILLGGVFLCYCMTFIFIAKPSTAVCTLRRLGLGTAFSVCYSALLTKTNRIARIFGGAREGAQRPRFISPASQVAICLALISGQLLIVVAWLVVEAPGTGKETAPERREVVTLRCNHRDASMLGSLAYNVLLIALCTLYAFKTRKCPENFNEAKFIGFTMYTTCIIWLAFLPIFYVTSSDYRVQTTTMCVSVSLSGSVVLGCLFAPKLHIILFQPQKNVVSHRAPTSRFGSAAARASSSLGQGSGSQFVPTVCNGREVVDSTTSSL
SMILES,pEC50 [1],pEC50 [2],pEC50 [3],pEC50 [4]
"CCCC(=O)c1ccc(OCCOCCOc2ccc(C(=O)O)cc2OC)c(C)c1O [Example 5, 4-(2-(2-(4-Butyryl-3-hydroxy-2-methylphenoxy)ethoxy)ethoxy)-3-methoxybenzoic acid]",< 5.00,7.59,7.57,< 5.00
"CCCC(=O)c1ccc(OCCOCCOc2cccc(C(=O)O)c2C)c(C)c1O [Example 7, 3-(2-(2-(4-Butyryl-3-hydroxy-2-methylphenoxy)ethoxy)ethoxy)-2-methylbenzoic acid]",< 4.52,6.94,6.80,< 5.00
"CCCC(=O)c1ccc(OCCOCCNc2cccc(C(=O)O)c2)c(C)c1O [Example 9, 3-({2-[2-(4-Butanoyl-3-hydroxy-2-methylphenoxy)ethoxy]ethyl}amino)benzoic acid]",< 5.00,7.30,7.14,< 5.00
CCCC(=O)c1ccc(OCCCCCOc2cccc(C(=O)O)c2C)c(C)c1O [Example 13],< 5.00,7.28,6.94,< 5.00
"CCCC(=O)c1ccc(OCCCCCOc2ccc(C(=O)O)cc2OC)c(C)c1O [Example 14, 4-[5-(4-Butanoyl-3-hydroxy-2-methylphenoxy)pentyloxy]-3-methoxybenzoic acid]",5.64,8.05,7.80,< 4.52
"CCCC(=O)c1ccc(OCCSCCOc2cccc(C(=O)O)c2C)c(C)c1O [Example 16, 3-{2-[2-(4-Butanoyl-3-hydroxy-2-methylphenoxy)ethylthio]ethoxy}-2-methylbenzoic acid]",< 5.00,7.55,7.25,< 4.52
"Cc1c(OCCCCCOc2ccc(C(=O)CC(C)(C)C)c(O)c2C)cccc1C(=O)O [Example 17, 3-{5-[4-(3,3-Dimethylbutanoyl)-3-hydroxy-2-methylphenoxy]pentyloxy}-2-methylbenzoic acid]",5.82,6.82,6.45,6.11
"COc1ccc(C(=O)O)cc1OCCCCCCOc1ccc(C(=O)CC(C)(C)C)c(O)c1C [Example 19, 3-{6-[4-(3,3-Dimethylbutanoyl)-3-hydroxy-2-methylphenoxy]hexyloxy}-4-methoxybenzoic acid]",6.09,6.78,6.54,6.33
"COC(=O)N(CCOc1cc(C(=O)O)ccc1OC)CCOc1ccc(C(=O)CC(C)(C)C)c(O)c1C [Example 24, 3-[2-(N-{2-[4-(3,3-Dimethylbutanoyl)-3-hydroxy-2-methylphenoxy]ethyl}methoxycarbonylamino)ethoxy]-4-methoxybenzoic acid]",6.19,7.09,6.75,6.34
"COc1ccc(C(=O)O)cc1OCCNCCOc1ccc(C(=O)CC(C)(C)C)c(O)c1C [Example 26, 3-[2-({2-[4-(3,3-Dimethylbutanoyl)-3-hydroxy-2-methylphenoxy]ethyl}amino)ethoxy]-4-methoxybenzoic acid]",5.39,6.81,5.67,5.79
"COc1ccc(C(=O)O)cc1OCCC(C)(C)CCOc1ccc(C(=O)CC(C)(C)C)c(O)c1C [Example 29, 3-{5-[4-(3,3-Dimethylbutanoyl)-3-hydroxy-2-methylphenoxy]-3,3-dimethylpentyloxy}-4-methoxybenzoic acid]",5.99,6.83,6.67,6.20
"CCCC(=O)c1ccc(OCCC(C)(C)CCOc2cccc(C(=O)O)c2C)c(C)c1O [Example 30, 3-[5-(4-Butanoyl-3-hydroxy-2-methylphenoxy)-3,3-dimethylpentyloxy]-2-methylbenzoic acid]",< 5.00,7.26,6.58,< 5.00
"COc1ccc(C(=O)O)cc1OCCC(C)COc1ccc(C(=O)CC(C)(C)C)c(O)c1C (centres unmarked) [Example 33, 3-{4-[4-(3,3-Dimethylbutanoyl)-3-hydroxy-2-methylphenoxy]-3-methylbutoxy}-4-methoxybenzoic acid]",6.71,6.88,6.66,6.71
[2H]C([2H])(CCCC([2H])([2H])Oc1ccc(C(=O)CCC)c(O)c1C)Oc1cccc(C(=O)O)c1C [Example 35],< 5.00,7.18,6.76,< 5.00

# More lines, now with the values ahead:
pEC50 [1],pEC50 [2],pEC50 [3],pEC50 [4],SMILES
7.04,6.84,6.34,7.10,"COc1ccc(C(=O)O)cc1C#CCCCOc1ccc(C(=O)CC(C)(C)C)c(O)c1C [Example 2, 3-(5-(4-(3,3-Dimethylbutanoyl)-3-hydroxy-2-methylphenoxy)pent-1-yn-1-yl)-4-methoxybenzoic acid]"
7.33,7.25,7.17,7.21,"COc1ccc(C(=O)O)cc1OC/C=C/COc1ccc(C(=O)CC(C)(C)C)c(O)c1C [Example 4, (E)-3-((4-(4-(3,3-Dimethylbutanoyl)-3-hydroxy-2-methylphenoxy)but-2-en-1-yl)oxy)-4-methoxybenzoic acid]"
6.31,8.00,7.72,6.27,"CCCC(=O)c1ccc(OC/C=C/COc2cccc(C(=O)O)c2C)c(C)c1O [Example 8, (E)-3-((4-(4-Butyryl-3-hydroxy-2-methylphenoxy)but-2-en-1-yl)oxy)-2-methylbenzoic acid]"
7.41,7.82,7.04,7.80,"COc1ccc(C(=O)O)cc1OCC#CCOc1ccc(C(=O)CC(C)(C)C)c(O)c1C [Example 10, 3-{4-[4-(3,3-Dimethylbutanoyl)-3-hydroxy-2-methylphenoxy]but-2-ynyloxy}-4-methoxybenzoic acid]"
6.50,8.15,7.46,6.90,"COc1ccc(C(=O)O)cc1OCCCCCOc1ccc(C(=O)CC(C)(C)C)c(O)c1C [Example 11, 3-{5-[4-(3,3-Dimethylbutanoyl)-3-hydroxy-2-methylphenoxy]pentyloxy}-4-methoxybenzoic acid]"
7.15,8.30,7.64,7.82,"COc1ccc(C(=O)O)cc1OCCSCCOc1ccc(C(=O)CC(C)(C)C)c(O)c1C [Example 12, 3-(2-{2-[4-(3,3-Dimethylbutanoyl)-3-hydroxy-2-methylphenoxy]ethylthio}ethoxy)-4-methoxybenzoic acid]"
7.70,8.40,7.80,7.41,"Cc1c(OCC#CCOc2ccc(C(=O)CC(C)(C)C)c(O)c2C)cccc1C(=O)O [Example 22, 3-{4-[4-(3,3-Dimethylbutanoyl)-3-hydroxy-2-methylphenoxy]but-2-ynyloxy}-2-methylbenzoic acid]"
6.31,7.35,7.04,6.49,"Cc1c(OCCOCCOc2ccc(C(=O)CC(C)(C)C)c(O)c2C)cccc1C(=O)O [Example 23, 3-(2-{2-[4-(3,3-Dimethylbutanoyl)-3-hydroxy-2-methylphenoxy]ethoxy}ethoxy)-2-methylbenzoic acid]"
6.24,7.22,6.86,6.51,Cc1c(OCCSCCOc2ccc(C(=O)CC(C)(C)C)c(O)c2C)cccc1C(=O)O [Example 25]
